Assay [1] has as its system pressor responses induced by AII. The assay is described as follows: Test C: antagonism of AII-induced pressor responses in terminally-anaesthetised or conscious rats. In kind it is in vivo. As to conditions: iv, rat, i.v. administration, AII-induced pressor response. From the text:
(§1) The antagonism of one or more of the physiological actions of AII and, in particular, the antagonism of the interaction of AII with the receptors which mediate its effects on a target tissue, may be assessed using one or more of the following, routine laboratory procedures.
Test C: This in vivo test involves using terminally-anaesthetised or conscious rats in which an arterial catheter has been implanted under anaesthesia for the measurement of changes in blood pressure. The AII antagonistic effects of the test compound following oral or parenteral administration, are assessed against pressor responses induced by AII. To ensure that the effect is specific the effect of the test compound on vasopressin-induced pressor responses may also be determined in the same preparation.

Assay [2] addresses T1, angiotensin II (AII) receptors, guinea pig adrenal gland membrane (Cavia porcellus, UniProt Q9WV26).
T1 construct: from tissue; host or cells: guinea pig adrenal gland, cell surface membrane fraction
T1 sequence (Q9WV26 1-359): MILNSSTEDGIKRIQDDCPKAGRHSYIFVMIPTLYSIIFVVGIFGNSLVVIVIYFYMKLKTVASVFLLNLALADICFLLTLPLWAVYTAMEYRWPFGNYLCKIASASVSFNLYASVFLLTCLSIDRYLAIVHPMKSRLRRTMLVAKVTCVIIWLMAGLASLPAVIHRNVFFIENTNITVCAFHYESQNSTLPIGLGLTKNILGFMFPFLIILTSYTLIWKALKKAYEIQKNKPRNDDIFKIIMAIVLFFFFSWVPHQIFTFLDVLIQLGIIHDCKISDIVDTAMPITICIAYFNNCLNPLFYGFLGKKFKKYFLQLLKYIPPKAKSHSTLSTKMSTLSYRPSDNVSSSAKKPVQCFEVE
The assay is described as follows: Test A: displacement of radiolabelled AII binding to guinea pig adrenal cell surface membranes. As to conditions: in vitro, read-out: IC50 (concentration for 50% displacement of radiolabelled AII binding). As for the experimental part: as §1
Test A: This in vitro procedure involves the incubation of the test compound initially at a concentration of 100 micromolar (or less) in a buffered mixture containing fixed concentrations of radiolabelled AII and a cell surface membrane fraction prepared from a suitable angiotensin target tissue. In this test, the source of cell surface membranes is the guinea pig adrenal gland which is well known to response to AII. Interaction of the radiolabelled AII with its receptors (assessed as radiolabel bound to the particulate membrane fraction following removal of unbound radiolabel by a rapid filtration procedure such as is standard in such studies) is antagonized by compounds which also bind to the membrane receptor sites and the degree of antagonism (observed in the test as displacement of membrane-bound radioactivity) is determined readily by comparing the receptor-bound radioactivity in the presence of the test compound at the specified test concentration with a control value determined in the absence of the test compound. […]

Each structure is given as a SMILES string. Structures can show the parent of a compound that is named as a salt.

Regarding `CCNC(=O)OCCOc1ccc2nc(CC)cc(OCc3ccc(-c4ccccc4-c4nn[nH]n4)cc3)c2n1` [Example 2, 2-ethyl-6-(2-ethylaminocarbonyloxy)ethoxy)-4-[(2'-(1H-tetrazol-5-yl)biphenyl-4-yl)methoxy]-1,5-naphthyridine hydrochloride], in assay [1], it took a dose of 0.08 mg/kg to reach the 50% effect level (ED50). For the same compound, in assay [2], the IC50 worked out at 18 nM.

Values taken from patent US5219863A, “Angiotensin II antagonizing compounds containing a 1,5-naphthyridine or a quinoline moiety” (Imperial Chemical Industries PLC, priority 1990, dated 1993).
